Laboratory results taken from the supplement of paper PMC11451515.

Test system: SEM cells
Test: cell viability relative to DMSO control; higher = less cytotoxic
Details: 48 h
Method in brief: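 Before seeding, each leukemia line was adapted for at least four passages in each medium. NOMO1 or SEM cells (500 cells/well) and P12-Ichikawa cells (1000 cells/well) went into 1536-well plates at 5 μl, then received library compounds in DMSO by pin dosing across 11 threefold concentrations, 47 μM to 0.79 nM. Readout was CellTiter-Glo One luminescence after 48 h at 37°C, and viability is given as a per-plate percentage of DMSO wells, with cell-free wells as background.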

[1] = HPLM + 10% dialyzed FBS, 0.000781 µM
[2] = HPLM + 10% dialyzed FBS, 0.00234 µM
[3] = HPLM + 10% dialyzed FBS, 0.00702 µM
[4] = HPLM + 10% dialyzed FBS, 0.0211 µM
[5] = HPLM + 10% dialyzed FBS, 0.0632 µM
[6] = HPLM + 10% dialyzed FBS, 0.19 µM
[7] = HPLM + 10% dialyzed FBS, 0.569 µM
[8] = HPLM + 10% dialyzed FBS, 1.71 µM
[9] = HPLM + 10% dialyzed FBS, 5.12 µM
[10] = HPLM + 10% dialyzed FBS, 15.4 µM
[11] = HPLM + 10% dialyzed FBS, 46.1 µM
[12] = RPMI 5 mM glucose + 10% FBS, 0.000781 µM
[13] = RPMI 5 mM glucose + 10% FBS, 0.00234 µM
[14] = RPMI 5 mM glucose + 10% FBS, 0.00702 µM
[15] = RPMI 5 mM glucose + 10% FBS, 0.0211 µM
[16] = RPMI 5 mM glucose + 10% FBS, 0.0632 µM
[17] = RPMI 5 mM glucose + 10% FBS, 0.19 µM
[18] = RPMI 5 mM glucose + 10% FBS, 0.569 µM
[19] = RPMI 5 mM glucose + 10% FBS, 1.71 µM
[20] = RPMI 5 mM glucose + 10% FBS, 5.12 µM
[21] = RPMI 5 mM glucose + 10% FBS, 15.4 µM
[22] = RPMI 5 mM glucose + 10% FBS, 46.1 µM
[23] = RPMI 5 mM glucose + 10% dialyzed FBS, 0.000781 µM
[24] = RPMI 5 mM glucose + 10% dialyzed FBS, 0.00234 µM
[25] = RPMI 5 mM glucose + 10% dialyzed FBS, 0.00702 µM
[26] = RPMI 5 mM glucose + 10% dialyzed FBS, 0.0211 µM
[27] = RPMI 5 mM glucose + 10% dialyzed FBS, 0.0632 µM
[28] = RPMI 5 mM glucose + 10% dialyzed FBS, 0.19 µM
[29] = RPMI 5 mM glucose + 10% dialyzed FBS, 0.569 µM
[30] = RPMI 5 mM glucose + 10% dialyzed FBS, 1.71 µM
[31] = RPMI 5 mM glucose + 10% dialyzed FBS, 5.12 µM
[32] = RPMI 5 mM glucose + 10% dialyzed FBS, 15.4 µM
[33] = RPMI 5 mM glucose + 10% dialyzed FBS, 46.1 µM

SMILES | cell viability [1] | cell viability [2] | cell viability [3] | cell viability [4] | cell viability [5] | cell viability [6] | cell viability [7] | cell viability [8] | cell viability [9] | cell viability [10] | cell viability [11] | cell viability [12] | cell viability [13] | cell viability [14] | cell viability [15] | cell viability [16] | cell viability [17] | cell viability [18] | cell viability [19] | cell viability [20] | cell viability [21] | cell viability [22] | cell viability [23] | cell viability [24] | cell viability [25] | cell viability [26] | cell viability [27] | cell viability [28] | cell viability [29] | cell viability [30] | cell viability [31] | cell viability [32] | cell viability [33]
CN(C)c1ccc(O)c2c1C[C@H]1C[C@H]3[C@H](N(C)C)C(O)=C(C(N)=O)C(=O)[C@@]3(O)C(O)=C1C2=O | 97.4% | 98.3% | 93.9% | 108% | 107% | 103% | 91.9% | 104% | 104% | 107% | 118% | 98.3% | 103% | 93.8% | 96.4% | 114% | 108% | 105% | 110% | 103% | 93.5% | 106% | 106% | 119% | 106% | 106% | 105% | 106% | 115% | 122% | 114% | 107% | 104%
CC(C)(C)c1cc(NC(=O)Nc2ccc(-c3cn4c(n3)sc3cc(OCCN5CCOCC5)ccc34)cc2)no1 | 66.8% | 53.7% | 45.8% | 44.3% | 32.2% | 38.2% | 46.6% | 30% | 30.1% | 26.1% | 27.8% | 80.9% | 61.9% | 67.7% | 49.8% | 42.1% | 46.3% | 49.3% | 38.9% | 43.4% | 33.5% | 27.8% | 74.2% | 49.4% | 51.3% | 36.6% | 30.4% | 36% | 31.3% | 33.6% | 27.5% | 23.5% | 24.6%
CCC1(C)CC(=O)NC1=O (stereo unspecified) | 107% | 102% | 109% | 112% | 114% | 114% | 106% | 95.5% | 110% | 94.5% | 81.7% | 113% | 101% | 107% | 107% | 103% | 106% | 106% | 93.7% | 103% | 92.3% | 72.3% | 93.7% | 114% | 117% | 114% | 116% | 108% | 110% | 99.7% | 108% | 94% | 74.3%
C[C@](O)(COc1ccc(C#N)cc1)C(=O)Nc1ccc(C#N)c(C(F)(F)F)c1 | 70.4% | 77% | 90.7% | 84.9% | 91.3% | 95.5% | 87% | 84.4% | 90.5% | 21.9% | 89.6% | 84.9% | 70.4% | 99.6% | 104% | 90.5% | 93% | 102% | 87.3% | 103% | 14.7% | 39.5% | 83% | 81.6% | 91.9% | 91.5% | 95.6% | 107% | 97.6% | 93.9% | 91% | 20.1% | 49.7%
O=NN(CCCl)C(=O)NCCCl | 75.9% | 89% | 117% | 86.6% | 100% | 121% | 107% | 121% | 94.1% | 110% | 85.8% | 85.4% | 105% | 104% | 110% | 121% | 119% | 119% | 125% | 129% | 118% | 102% | 80.1% | 88.3% | 100% | 87.4% | 113% | 108% | 102% | 117% | 111% | 107% | 84.3%
Cl.Cl.Cl.O[C@@H](COc1cccc2ncccc12)CN1CCN([C@@H]2c3ccccc3[C@@H]3[C@H](c4ccccc42)C3(F)F)CC1 | 88.2% | 103% | 82.3% | 83.8% | 105% | 90% | 84.5% | 89.6% | 91.9% | 71.2% | 73.4% | 89.3% | 100% | 75.7% | 95.7% | 98.6% | 82.6% | 86.2% | 94.5% | 100% | 97.3% | 3.4% | 94.1% | 92.1% | 85.7% | 93.9% | 101% | 102% | 86.9% | 106% | 85.3% | 105% | 83.5%
CC(C)OC(=O)OCOP(=O)(CO[C@H](C)Cn1cnc2c(N)ncnc21)OCOC(=O)OC(C)C.O=C(O)C=CC(=O)O | 85% | 99.6% | 28.3% | 121% | 105% | 114% | 114% | 120% | 98.2% | 105% | 35.1% | 108% | 113% | 11.7% | 119% | 119% | 124% | 115% | 115% | 109% | 94.8% | 76.1% | 77.3% | 107% | 23.8% | 102% | 113% | 104% | 97.9% | 124% | 104% | 102% | 32.2%
CC(NC1=CC=CC=C1)C\2=C\C(=C/N3C(=O)\C=C(/N=C23)N4CCOCC4)C (stereo unspecified) | 96.9% | 86.4% | 108% | 99.1% | 101% | 108% | 107% | 108% | 103% | 97.3% | 86.5% | 99.1% | 101% | 117% | 126% | 103% | 101% | 128% | 119% | 117% | 101% | 12.2% | 95.3% | 79.7% | 113% | 106% | 94.3% | 73.8% | 101% | 110% | 98.3% | 87.3% | 53.8%
CCCCCCCCCCCCCCCCCCCCCCO | 104% | 95% | 119% | 116% | 110% | 110% | 111% | 127% | 87.8% | 123% | 132% | 122% | 113% | 135% | 133% | 129% | 146% | 153% | 156% | 98.4% | 138% | 155% | 102% | 98.1% | 120% | 123% | 118% | 115% | 118% | 132% | 87% | 116% | 138%
CN(C)CCOc1cc(-c2cn[nH]c2)ccc1NC(=O)C1COc2ccccc2O1 (stereo unspecified) | 87.1% | 84.6% | 101% | 105% | 106% | 106% | 98.5% | 102% | 80.1% | 71.7% | 56.2% | 101% | 95% | 108% | 94.9% | 118% | 90.7% | 103% | 96% | 105% | 69.3% | 61.3% | 107% | 101% | 110% | 108% | 94.6% | 104% | 93.1% | 102% | 98.3% | 71.8% | 68.9%
COC1=NC(=NC(=C1N\C2=N\CCN2)Cl)C | 71.4% | 88.7% | 47.6% | 91.8% | 99.9% | 94.1% | 114% | 102% | 44.4% | 108% | 100% | 81% | 79.3% | 45% | 84% | 79.6% | 83.5% | 106% | 81.9% | 34.1% | 103% | 99.2% | 74.6% | 80% | 46.6% | 102% | 104% | 104% | 101% | 101% | 49.6% | 98.7% | 113%
CCC(C)SSc1ncc[nH]1 (stereo unspecified) | 87.4% | 90.2% | 107% | 101% | 91% | 97.5% | 89% | 36.2% | 81.9% | 57.8% | 7.14% | 93.9% | 91.5% | 88.7% | 102% | 92.7% | 109% | 93.8% | 17.7% | 82.9% | 29.9% | 6.98% | 85.7% | 75.8% | 83.2% | 83.9% | 89.8% | 108% | 78.8% | 27.2% | 73.6% | 10.3% | 6.57%
CCC[C@H](NC(=O)/C(C#N)=C/c1cccc(Br)n1)c1ccccc1 | 121% | 125% | 119% | 26.5% | 124% | 117% | 111% | 124% | 120% | 98.6% | 6.55% | 94.4% | 110% | 104% | 17.6% | 112% | 111% | 102% | 113% | 111% | 57.1% | 7.49% |  |  |  |  |  |  |  |  |  |  | 
COC1=C(N2CCNC(C)C2)C(=CC3=C1N(\C=C(C(O)=O)/C3=O)C4CC4)F (stereo unspecified) | 74.8% | 88.8% | 83.1% | 84.2% | 51.8% | 66.3% | 55.2% | 51.2% | 13.9% | 21.6% | 18.1% | 98% | 95.1% | 116% | 96% | 53.2% | 92.3% | 58.5% | 61.7% | 44.8% | 37.9% | 25.6% | 73.7% | 73.3% | 79.9% | 83.1% | 48.8% | 60.2% | 48.7% | 38.5% | 13.4% | 26.6% | 12.2%
O=C(NCC[S+](=O)([O-])c1ccc(C(F)(F)F)cn1)c1ccc(Cl)cc1 | 115% | 126% | 107% | 117% | 111% | 114% | 103% | 106% | 101% | 104% | 107% | 94.5% | 111% | 89.7% | 96.7% | 86.8% | 104% | 99.2% | 81% | 80.6% | 109% | 87.1% |  |  |  |  |  |  |  |  |  |  | 
CC(C)[C@@H](N(CCCN)C(=O)C1=CC=C(C)C=C1)C/2=N/C3=CC(=CC=C3C(=O)N2CC4=CC=CC=C4)Cl | 84.5% | 21% | 20.5% | 19.5% | 16% | 20.4% | 19.5% | 20.2% | 21.9% | 21.2% | 21.9% | 103% | 16.5% | 14.8% | 14% | 15.9% | 15% | 12.3% | 13.7% | 16.8% | 16.2% | 11.6% | 80% | 19.8% | 16.2% | 15.7% | 16.4% | 14.4% | 17.5% | 14.8% | 16.4% | 17.2% | 13.2%
